From patent US9181259B2 (LEO PHARMA A/S, priority 2012, dated 2015)
Where a name gives a salt, the structure may show the parent alone.

Columns and labels:
NK1 receptor = target: T1, NK1 receptor (Homo sapiens, UniProt P25103); experiment: NK1 receptor mediated intracellular [Ca2+] mobilization in U251 MG cells using FLIPR; assay type: cell-based; settings: antagonist potency against Substance P (EC80), normalized to 100 nM Aprepitant, read-out: U251MG (FLIPR pIC50) (converted)
T1 construct: Measurement of NK1 Receptor Mediated Intracellular [Ca^2+]; Mobilization in U251 MG Cells Using FLIPR; endogenous in cells; host or cells: U251 MG cells
Method in brief: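 Fluo-4-loaded U251 MG cells were preincubated with compound (0.5% DMSO final), with any agonist effect read for 5 min, then 10 min more at 37 °C before Substance P at EC80. Peak FLIPR fluorescence change was read, and IC50 came from a four-parameter fit as the midpoint between fitted top and bottom.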

[1] = Hepatic intrinsic clearance following incubation in human liver microsomes; assay type: in vitro ADME; settings: NADPH regenerating system, 0-30 min, 37 °C
Protocol: Hepatic Extraction Ratio from Hepatic Intrinsic Clearance Following Incubation in Human Liver Microsomes
The general procedure consists of an automated incubation system and LC-MS/MS analysis with human liver microsomes. Human liver microsomes are thawed rapidly in a waterbath at 37° C. and kept on ice until use. The human liver microsomes are diluted with 50 mM potassium phosphate buffer pH 7.4 to a protein concentration of 0.55 mg/mL. Test compounds and positive controls (Verapamil and Dextromethorphan, positive controls for CYP3A4 for CYP2D6 isoforms, respectively) are dissolved in methanol (or other appropriate solvent, if necessary) in order to obtain a 5 mM solution which is further diluted to the concentration of 50 μM. The stock solutions are prepared immediately before the test.
5 μL of 50 μM test compounds and controls are added to 445 μL-of the 0.55 mg/mL microsomes solution and the incubation mixture are pre-warmed at 37° C. for 5 minutes.
The incubation reactions are initiated by adding 50 μL of pre-warmed NADPH regenerating system to the incubation mixtures. 50 μL-aliquots will be taken from the incubation mixtures at: 0, 3, 6, 9, 15 and 30 minutes and the reactions are stopped by adding 100 μL of ACN containing Rolipram, used as generic Internal Standard (1S). Samples are then diluted with 120 μL of Milli-Q water and centrifuged at 3000 rpm for 10 minutes, prior the LC-MS/MS analysis.
The integrated peak areas for test compounds at the selected time points are divided by the respective peak areas of the IS and the percent of parent remaining is calculated by normalizing the peak area ratio of parent to IS at 0 min. Observed rate constant (kobs) for parent degradation is calculated by determining the slope of the line of the graph of the natural log of percentage parent remaining versus time of incubation. From the rate of depletion (min-1) and volume of the incubation (mL), clearance is estimated. This is scaled for the protein in the incubation relative to that in the intact liver, for all species (mL/min/g liver).
Values for the Human in vitro Clint are expressed as mL/min/g liver.
Assuming a liver weight of 25.7 g/kg and a liver blood flow of 20.7 mL/min/kg, the hepatic extraction ratio, Eh, can be derived from the Human in vitro Clint:
E.g. a Human in vitro Clint of 2.4 mL/min/g liver corresponds to a hepatic extraction ratio of 75%.
Some compounds of the present invention were tested according to example 121.

T1 sequence (P25103 whole entry): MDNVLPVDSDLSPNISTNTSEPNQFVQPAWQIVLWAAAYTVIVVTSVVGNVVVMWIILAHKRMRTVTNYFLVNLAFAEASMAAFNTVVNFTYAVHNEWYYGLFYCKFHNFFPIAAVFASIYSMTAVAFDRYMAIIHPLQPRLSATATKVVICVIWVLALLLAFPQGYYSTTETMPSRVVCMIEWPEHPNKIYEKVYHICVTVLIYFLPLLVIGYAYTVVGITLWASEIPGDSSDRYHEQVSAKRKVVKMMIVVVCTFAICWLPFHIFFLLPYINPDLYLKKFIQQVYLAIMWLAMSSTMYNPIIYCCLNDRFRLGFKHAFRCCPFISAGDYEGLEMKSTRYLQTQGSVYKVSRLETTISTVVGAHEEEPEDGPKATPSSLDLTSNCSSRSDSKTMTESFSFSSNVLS

SMILES	IC50 (NK1 receptor)	Human in vitro Clint (mL/min/g liver) [1]
Cc1ccccc1[C@H]1[C@@H]2CC(CCO)(CCO)C(=O)N2CCN1C(=O)N(C)[C@H](CO)c1cc(F)cc(C(F)(F)F)c1 [Compound 94, (1S,8aS)-N-((S)-1-(3-fluoro-5-(trifluoromethyl)phenyl)-2-hydroxyethyl)-7,7-bis(2-hydroxyethyl)-N-methyl-6-oxo-1-o-tolylhexahydropyrrolo[1,2-a]pyrazine-2(1H)-carboxamide]	0.0501 nM	3.4 mL/min/g liver
COc1cc([C@@H](CO)N(C)C(=O)N2CCN3C(=O)C(CCO)(CCO)C[C@H]3[C@@H]2c2ccccc2C)cc(C(F)(F)F)c1 [Compound 95, (1S,8aS)-N-((S)-2-hydroxy-1-(3-methoxy-5-(trifluoromethyl)phenyl)ethyl)-7,7-bis(2-hydroxyethyl)-N-methyl-6-oxo-1-o-tolylhexahydropyrrolo[1,2-a]pyrazine-2(1H)-carboxamide]	0.155 nM	2.1 mL/min/g liver
Cc1ccccc1[C@H]1[C@@H]2CC(CCO)(CCO)C(=O)N2CCN1C(=O)N(C)[C@H](CO)c1cccc(C(F)(F)F)c1 [Compound 96, (1S,8aS)-N-((S)-2-hydroxy-1-(3-(trifluoromethyl)phenyl)ethyl)-7,7-bis(2-hydroxyethyl)-N-methyl-6-oxo-1-o-tolylhexahydropyrrolo[1,2-a]pyrazine-2(1H)-carboxamide]	0.0794 nM	4.8 mL/min/g liver
Cc1ccccc1[C@H]1[C@@H]2CC(CCO)(CCO)C(=O)N2CCN1C(=O)N(C)[C@H](C)c1cc(C(F)F)cc(C(F)(F)F)c1 [Compound 97, (1S,8aS)-N-((R)-1-(3-(difluoromethyl)-5-(trifluoromethyl)phenyl)ethyl)-7,7-bis(2-hydroxyethyl)-N-methyl-6-oxo-1-o-tolylhexahydropyrrolo[1,2-a]pyrazine-2(1H)-carboxamide]	0.0501 nM	14 mL/min/g liver
Cc1ccccc1[C@H]1[C@@H]2CC(CCO)(CCO)C(=O)N2CCN1C(=O)N(C)[C@H](C)c1cc(C(F)F)cc(C(F)(F)F)c1 [Compound 98, (1S,8aS)-N-((R)-1-(3-(difluoromethyl)-5-(trifluoromethyl)phenyl)ethyl)-7,7-bis(2-hydroxyethyl)-N-methyl-6-oxo-1-o-tolylhexahydropyrrolo[1,2-a]pyrazine-2(1H)-carboxamide]	0.117 nM	4.0 mL/min/g liver
Cc1ccccc1[C@H]1[C@@H]2CC(CCO)(CCO)C(=O)N2CCN1C(=O)N(C)[C@@H](C)c1cc(C(F)(F)F)cc(C(F)(F)F)c1 [Compound 99, (1S,8aS)-N-((S)-1-(3,5-bis(trifluoromethyl)phenyl)ethyl)-7,7-bis(2-hydroxyethyl)-N-methyl-6-oxo-1-o-tolylhexahydropyrrolo[1,2-a]pyrazine-2(1H)-carboxamide]	0.166 nM	5.4 mL/min/g liver
Cc1ccccc1[C@H]1[C@@H]2CC3(CCOCC3)C(=O)N2CCN1C(=O)N(C)[C@H](C)c1cc(C(F)(F)F)cc(C(F)(F)F)c1 [Compound 100, (1′S,8a′S)-N-((R)-1-(3,5-bis(trifluoromethyl)phenyl)ethyl)-N-methyl-6′-oxo-1′-o-tolyloctahydro-1′H-spiro[pyran-4,7′-pyrrolo[1,2-a]pyrazine]-2′(6′H)-carboxamide]	0.126 nM	3.0 mL/min/g liver
Cc1cc([C@@H](C)N(C)C(=O)N2CCN3C(=O)C4(CCOCC4)C[C@H]3[C@@H]2c2ccccc2C)cc(C(F)(F)F)c1 [Compound 101]	0.0251 nM	6.9 mL/min/g liver
Cc1cc([C@@H](C)N(C)C(=O)N2CCN3C(=O)C(CO)C[C@H]3[C@@H]2c2ccccc2C)cc(C(F)(F)F)c1 (stereo partly drawn) [Compound 102, (1S,8aS)-7-(hydroxymethyl)-N-methyl-N-((R)-1-(3-methyl-5-(trifluoromethyl)phenyl)ethyl)-6-oxo-1-o-tolylhexahydropyrrolo[1,2-a]pyrazine-2(1H)-carboxamide]	0.214 nM	5.6 mL/min/g liver
Cc1cc([C@@H](C)N(C)C(=O)N2CCN3C(=O)C(CO)(CO)C[C@H]3[C@@H]2c2ccccc2C)cc(C(F)(F)F)c1 [Compound 103, (1S,8aS)-7,7-bis(hydroxymethyl)-N-methyl-N-((R)-1-(3-methyl-5-(trifluoromethyl)phenyl)ethyl)-6-oxo-1-o-tolylhexahydropyrrolo[1,2-a]pyrazine-2(1H)-carboxamide]	0.0794 nM	4.8 mL/min/g liver
Cc1ccccc1[C@H]1[C@@H]2CC(CO)(CO)C(=O)N2CCN1C(=O)N(C)[C@H](C)c1cc(C(F)(F)F)cc(C(F)(F)F)c1 [Compound 104, (1S,8aS)-N-((R)-1-(3,5-bis(trifluoromethyl)phenyl)ethyl)-7,7-bis(hydroxymethyl)-N-methyl-6-oxo-1-o-tolylhexahydropyrrolo[1,2-a]pyrazine-2(1H)-carboxamide]	0.1 nM	3.1 mL/min/g liver
Cc1ccccc1[C@H]1[C@@H]2CC3(CCN(C)CC3)C(=O)N2CCN1C(=O)N(C)[C@H](C)c1cc(C(F)(F)F)cc(C(F)(F)F)c1 [Compound 105, (1′S,8a′S)-N-((R)-1-(3,5-bis(trifluoromethyl)phenyl)ethyl)-N,1-dimethyl-6′-oxo-1′-o-tolyltetrahydro-1′H-spiro[piperidine-4,7′-pyrrolo[1,2-a]pyrazine]-2′(6′H)-carboxamide, formic acid salt]	0.24 nM	1.2 mL/min/g liver

Now from value to compound:

IC50 (NK1 receptor)	Human in vitro Clint (mL/min/g liver) [1]	SMILES
0.115 nM	0.19 mL/min/g liver	Cc1ccccc1[C@H]1[C@@H]2CC3(CCNCC3)C(=O)N2CCN1C(=O)N(C)[C@H](C)c1cc(C(F)(F)F)cc(C(F)(F)F)c1 [Compound 106, (1′S,8a′S)-N-((R)-1-(3,5-bis(trifluoromethyl)phenyl)ethyl)-N-methyl-6′-oxo-1′-o-tolyltetrahydro-1′H-spiro[piperidine-4,7′-pyrrolo[1,2-a]pyrazine]-2′(6′(6′H)-carboxamide, formic acid salt]
0.107 nM	9.2 mL/min/g liver	Cc1cc([C@@H](C)N(C)C(=O)N2CCN3C(=O)CC[C@H]3[C@@H]2c2ccccc2C)cc(C(F)(F)F)c1 [Compound 107, (1S,8aS)-N-methyl-N-((R)-1-(3-methyl-5-(trifluoromethyl)phenyl)ethyl)-6-oxo-1-o-tolylhexahydropyrrolo[1,2-a]pyrazine-2(1H)-carboxamide]
0.0316 nM	4.3 mL/min/g liver	Cc1ccccc1[C@H]1[C@@H]2CC(CO)(CO)C(=O)N2CCN1C(=O)N(C)[C@H](C)c1cc(Cl)cc(C(F)(F)F)c1 [Compound 108, (1S,8aS)-N-((R)-1-(3-chloro-5-(trifluoromethyl)phenyl)ethyl)-7,7-bis(hydroxymethyl)-N-methyl-6-oxo-1-o-tolylhexahydropyrrolo[1,2-a]pyrazine-2(1H)-carboxamide]
0.1 nM	13 mL/min/g liver	CCc1cc([C@@H](C)N(C)C(=O)N2CCN3C(=O)CC[C@H]3[C@@H]2c2ccccc2C)cc(C(F)(F)F)c1 [Compound 109, (1S,8aS)-N-((R)-1-(3-ethyl-5-(trifluoromethyl)phenyl)ethyl)-N-methyl-6-oxo-1-o-tolylhexahydropyrrolo[1,2-a]pyrazine-2(1H)-carboxamide]
0.0631 nM	13 mL/min/g liver	CCc1cc([C@@H](C)N(C)C(=O)N2CCN3C(=O)C(CCO)(CCO)C[C@H]3[C@@H]2c2ccccc2C)cc(C(F)(F)F)c1 [Compound 110, (1S,8aS)-N-((R)-1-(3-ethyl-5-(trifluoromethyl)phenyl)ethyl)-7,7-bis(2-hydroxyethyl)-N-methyl-6-oxo-1-o-tolylhexahydropyrrolo[1,2-a]pyrazine-2(1H)-carboxamide]
0.0617 nM	3.7 mL/min/g liver	Cc1cc([C@@H](CO)N(C)C(=O)N2CCN3C(=O)C(CCO)(CCO)C[C@H]3[C@@H]2c2ccccc2C)cc(C(F)(F)F)c1 [Compound 111, (1S,8aS)-N-((S)-2-hydroxy-1-(3-methyl-5-(trifluoromethyl)phenyl)ethyl)-7,7-bis(2-hydroxyethyl)-N-methyl-6-oxo-1-o-tolylhexahydropyrrolo[1,2-a]pyrazine-2(1H)-carboxamide]
